According to paper PMC6100073, “Activation of Anthracene Endoperoxides in Leishmania and Impairment of Mitochondrial Functions” (Molecules : A Journal of Synthetic Chemistry and Natural …, 2018):

What was measured:
[1] = tested on: LtP; assay: EPR (CMH oxidation): superoxide formation in LtP; format: cell-based, Leishmania tarentolae; details: 20 µM AA or 100 µM other compounds, 500 × 10^6 LtP/mL, 400 µM CMH, DFO, DTPA, 5 min, 25 °C
Experimental: To measure superoxide radical (O2^•−) formation induced by AcEPs in LtP, EPR spectroscopy was used. An aliquot of the cell broth was transferred into an Eppendorf tube that was centrifuged (Hettich Universal 16, 20 °C, 2000× g, 10 min). The supernatant was discarded, the cell pellet was resuspended in PBS and centrifuged again. After removal of the supernatant, the cell pellet was resuspended in a mixture of PBS, 15 mM glucose (PBS/Glu), DFO (100 µM), and DTPA (25 µM). […] The cell suspension was aliquoted. CMH was added as detection agent leading to a final concentration of 400 µM. After 5 min of incubation at 25 °C, the respective substance was added resulting in final concentrations of 20 µM antimycin A (AA) or 100 µM of AcEP1117, AcEP1118, AcEP1129, AcEP1130, Ac, and AQ. Samples containing LtP and CMH were used as negative control. Samples containing PBS/Glu and CMH were used as negative control as well. After 5 min of incubation at 25 °C with the respective substance, aliquots of 17 µL of the cell suspensions were aspirated into a PTFE tube (outer diameter 0.7 mm). The tube was transferred into the MD5 resonator of the EPR spectrometer. Immediately, the measurement was started using the following parameters: microwave frequency 9.684 GHz; microwave power 20 mW, modulation frequency 100 kHz; modulation amplitude 1 G; time constant 0.82 s; center field 3449 G; scan rate 14 G/min; sweep width 100 G; scan time 419 s; attenuation 2.52 × 10^4; and scans 5.

[2] = Xylenol orange assay: reaction of endoperoxides with Fe2+; details: 50 µM compound, 250 µM FeSO4, 125 µM xylenol orange, methanol/H2O (9:1 v/v)
Experimental: Xylenol orange (XO) (125 µM) and butylated hydroxytoluene (4 mM) were dissolved in methanol/H2O (9:1, v/v). FeSO4 (25 mM) in 2.5 M H2SO4 was prepared immediately before use and added, giving a final concentration of 250 µM FeSO4 in the samples. An aliquot of 100 µL EP solution (final concentration of 50 µM) was transferred into a disposable 1.5 mL cuvette (BRAND, Wertheim, Germany), and 1 mL of the color reagent was added. […] At these time points, the OD difference of the sample at 560 nm and 650 nm was determined using a MS1501 UV-vis diode array spectrophotometer (Shimadzu, Japan). As reference, a mixture of methanol/H2O (9:1, v/v) was used. […] The slope of the reaction rate was calculated using an extinction coefficient of the complex of 1.5 × 10^4 M^−1 cm^−1.

[3] = tested on: LtP; assay: EPR spin trapping (DMPO): activation of AcEPs by LtP; format: cell-based, Leishmania tarentolae; details: 500 µM compound, 2 × 10^9 LtP/mL, 40 mM DMPO, 15 min, no added iron
Experimental: To detect the radicals derived from AcEPs in LtP, EPR experiments were performed using DMPO as spin trap. Aliquots of the cell broth were transferred into Sarstedt tubes that were centrifuged (20 °C, 1800× g, 10 min), and the supernatants were discarded. Then the cell pellets were resuspended in PBS and centrifuged again. After removal of the supernatants, the cell pellets were resuspended in a mixture of PBS containing glucose (15 mM), giving a final cell number of 2 × 10^9 LtP/mL. Aliquots (150 µL) were incubated in 1.5 mL Eppendorf tubes with aeration holes. The cells were incubated with DMPO (40 mM) for 5 min at 26 °C, and after addition of 500 µM of the respective substance (Asc, AcEP1117, AcEP1118, AcEP1129, AcEP1130, Ac or AQ), the samples were incubated for additional 15 min at 26 °C under constant agitation (agitation speed: 0.3 s^−1). Control samples containing LtP, LtP and DMSO (1.27%, v/v), or PBS/glucose alone were incubated with 40 mM DMPO under the same conditions. Cell samples containing DMPO that were treated with Asc served as positive control. Samples treated with Ac or AQ were used as negative controls. Subsequently, 50 µL of the samples were aspirated into glass capillaries and transferred in the MD5 resonator of the EPR spectrometer. The samples were measured immediately using the following instrument settings: microwave frequency 9.684 GHz; microwave power 20 mW, modulation frequency 100 kHz; modulation amplitude 2 G; time constant 0.164 s; center field 3449 G; scan rate 71 G/min; sweep width 100 G; scan time 84 s; attenuation 8.93 × 10^5; and scans 3.

[4] = tested on: LtP; assay: Uncoupling of LtP respiration in presence of oligomycin (OxoPlates); format: cell-based, Leishmania tarentolae; details: 38 µM Oligo
Experimental: The uncoupling experiments using OxoPlates were carried out in analogy to oxygen consumption measurements of LtP. An oligomycin (Oligo) premix in aBHI was prepared leading to a final concentration of 38 µM oligomycin (Oligo). Each well of the second row was filled with 50 µL of aBHI. From the third row on, each well was filled with 50 µL of the Oligo premix and to the fourth row additional 50 µL Oligo premix was added. The respective amounts of the substances (Ac, AQ, AcEP1117, AcEP1118, AcEP1129, AcEP1130, CCCP) were added and a serial 1:2 dilution was performed. Measurements were carried out as described above. The oxygen consumption rates were normalized to the wells that contained only LtP. For each concentration measurements were done in triplicates.

Q: Which “CMH oxidation (superoxide radical formation) in LtP” value [1] does the source give for CCCCCC[C@H]1C(=O)O[C@H](C)[C@H](NC(=O)c2cccc(NC=O)c2O)C(=O)O[C@@H](C)[C@@H]1OC(=O)CC(C)C [AA, antimycin A, reference compound] here?
A: triggered additional CMH oxidation in LtP

Q: For CC(C)C12C=CC(C)(CC1)OO2 (centres unmarked) [Asc, ascaridole, reference compound], which “Slope (nM·min^−1) Mean ± SD of XO/Fe^3+ complex formation” value [2] is on record?
A: 608 ± 52 nM/min

Q: And the “DMPO spin adduct formation in LtP (EPR)” value [3]?
A: showed DMPO spin adducts of carbon-centered radicals

Q: For N#CC(C#N)=NNc1cccc(Cl)c1 [CCCP, carbonyl cyanide m-chlorophenylhydrazone], which “uncoupling effect (recovery of O2 consumption in the presence of Oligo)” value ([4]; 0.31–5.0 µM CCCP or 12.5–200.0 µM other compounds) is on record?
A: a recovery of O2 consumption in the presence of Oligo was observed

Q: With CC[C@H]1/C=C/C=C/C[C@@H](C)[C@H](O)[C@@](C)(O)C(=O)[C@@H](C)[C@H](O)[C@@H](C)C(=O)[C@@H](C)[C@H](O)[C@@H](C)/C=C/C(=O)O[C@@H]2[C@H](C)[C@H](CC1)O[C@]1(CC[C@H](C)[C@H](C[C@@H](C)O)O1)[C@H]2C [Oligo, oligomycin] as the molecule, how does the “oxygen consumption rate compared to untreated LtP” value ([4]; 140 × 10^6 LtP/mL) read?
A: about 60%
